Data as given in patent publication US10150780B2, “Spirocyclic heterocycle compounds useful as HIV integrase inhibitors” (Merck Sharp & Dohme Corp., priority 2014, dated 2018).
Like-named read-outs stand apart in the source and are kept apart here.

Test system: HIV-1 (NL4-3 strain)
Test: Assay for Inhibition of HIV Replication (VIKING), infected MT4-GFP cells
Format: cell-based
Conditions: infected cells at 48 h / 24 h
Protocol: MT4-GFP cells (250,000 cells/ml) were bulk-infected with HIV-1 (NL4-3 strain) at low multiplicity of infection (MOI) in RPMI+10% FBS for 24 hours. Cells were then washed once in RPMI+10% FBS and resuspended RPMI+0% or +100% normal human serum (NHS). Test compounds were serial-diluted in DMSO on ECHO. The infected MT4-GFP cells were added to a 384-well poly-D-lysine coated black plate with clear bottom in which the diluted test compounds were placed. The cells were seeded at 8,000 cells per well and the final DMSO concentration was 0.4%. The infected cells (Green GFP cells) were quantified at both 24 and 48 hours post incubation using Acumen eX3. Viral reproductive ratio (R0) was determined using the number of infected cells at 48 hours divided by the number of infected cells at 24 hours. Percent viral growth inhibition was calculated by [1−(R−Rtripledrug)/(RDMSO−Rtripledrug)]*100.

[1] = MT4-GFP cells infected with HIV-1 NL4-3, RPMI + 0% normal human serum, read-out: VIKING IP50 (nM) with 0% NHS
[2] = MT4-GFP cells infected with HIV-1 NL4-3, RPMI + 100% normal human serum, read-out: VIKING IP50 (nM) with 100% NHS
[3] = Human immunodeficiency virus 1, NL43, 48 h, MT4-GFP cells infected with HIV-1 NL4-3, RPMI + 0% normal human serum, read-out: VIKING IP50 (nM) with 0% NHS
[4] = Human immunodeficiency virus 1, NL43, MT4-GFP cells infected with HIV-1 NL4-3, RPMI + 100% normal human serum, read-out: VIKING IP50 (nM) with 100% NHS

Structure (SMILES) | IC50 [1] | IC50 [2] | IC50 [3] | IC50 [4]
O=C(NCc1ccc(F)cc1F)c1cn2c(c(O)c1=O)C(=O)N1CCCOC1C21CC1 (single isomer, unassigned) [Compound 4] | 0.5 nM | 285 nM | – | –
CN1CCCN2C(=O)c3c(O)c(=O)c(C(=O)NCc4cccc(Cl)c4F)cn3C3(CC3)C12 (single isomer, unassigned) [Compound 15] | 0.6 nM | 71.5 nM | – | –
O=C(NCc1ccc(F)cc1F)c1cn2c(c(O)c1=O)C(=O)N1CCCOC1C21CC1 (single isomer, unassigned) [Compound 3] | – | 3370 nM | 0.6 nM | –
O=C(NCc1cccc(Cl)c1F)c1cn2c(c(O)c1=O)C(=O)N1CCOC1C21CC1 (single isomer, unassigned) [Compound 11] | 0.4 nM | > 8000 nM | – | –
CN(C)N1CC2(COC2)n2cc(C(=O)NCc3ccc(F)cc3F)c(=O)c(O)c2C1=O [Compound 7] | – | – | 4 nM | 1280 nM
O=C(NCc1cccc(Cl)c1F)c1cn2c(c(O)c1=O)C(=O)N1CCCOC1C21CC1 (single isomer, unassigned) [Compound 6] | 0.6 nM | 505 nM | – | –
O=C(NCc1cccc(Cl)c1F)c1cn2c(c(O)c1=O)C(=O)N1CCOC1C21CC1 (single isomer, unassigned) [Compound 10] | – | 3900 nM | 0.4 nM | –
COC1N(N(C)C)C(=O)c2c(O)c(=O)c(C(=O)NCc3ccc(F)cc3F)cn2C12CC2 (single isomer, unassigned) [Compound 2] | 1.7 nM | 153 nM | – | –
COC1N(N(C)C)C(=O)c2c(O)c(=O)c(C(=O)NCc3ccc(F)cc3F)cn2C12COC2 (stereo not drawn) [Compound 9] | – | – | 7 nM | 235 nM
COC1N(N(C)C)C(=O)c2c(O)c(=O)c(C(=O)NCc3ccc(F)cc3F)cn2C12CC2 (single isomer, unassigned) [Compound 1] | – | > 8000 nM | 1.9 nM | –
O=C(NCc1cccc(Cl)c1F)c1cn2c(c(O)c1=O)C(=O)N1CCCCOC1C21CC1 (single isomer, unassigned) [Compound 13] | 1.3 nM | 4100 nM | – | –
CN(C)N1CC2(CCOCC2)n2cc(C(=O)NCc3ccc(F)cc3F)c(=O)c(O)c2C1=O [Compound 8] | – | – | 19 nM | 1510 nM
O=C(NCc1cccc(Cl)c1F)c1cn2c(c(O)c1=O)C(=O)N1CCCCOC1C21CC1 (single isomer, unassigned) [Compound 12] | 0.5 nM | 92.3 nM | – | –
O=C(NCc1cccc(Cl)c1F)c1cn2c(c(O)c1=O)C(=O)N1CCCOC1C21CC1 (single isomer, unassigned) [Compound 5] | – | > 8000 nM | 0.8 nM | –
CN1CCCN2C(=O)c3c(O)c(=O)c(C(=O)NCc4cccc(Cl)c4F)cn3C3(CC3)C12 (single isomer, unassigned) [Compound 14] | – | 2340 nM | 1 nM | –
